Values quoted from earlier work, collected in US9566245B2, “Osmotic drug delivery system” (Supernus Pharmaceuticals, Inc., priority 2006, dated 2017).

Details: treprostinil as the free acid

CCCCC[C@H](O)CC[C@@H]1[C@H]2Cc3cccc(OCC(=O)O)c3C[C@H]2C[C@H]1O [treprostinil]
Absolute oral bioavailability: less than 10%
